This note sets out measurements from ChEMBL document CHEMBL5346920, “Development of the "hidden" multi-target-directed ligands by AChE/BuChE for the treatment of Alzheimer's disease” (Eur J Med Chem, 2023).

Activity calls are given as the source filed them. No cut-off for these calls is given here.

The target of data set [1] is T1, Cholinesterase (Equus caballus, UniProt P81908). Put plainly: Drug metabolism assessed as equine serum BuChE-mediated 3-(4-fluorophenyl)-1-(2-hydroxyphenyl)prop-2-en-1-one formation treated at 150 mmol/L with 0.05U BuChE and measured after 9 mins by HPLC analysis. Format: ADME, cell-free. The settings on record: horse, 0.15 h.
For data set [2], the target named is T1, Cholinesterase. Put plainly: Drug metabolism assessed as equine serum BuChE-mediated 3-(4-fluorophenyl)-1-(2-hydroxyphenyl)prop-2-en-1-one formation treated at 150 mmol/L with 0.25U BuChE and measured after 6 secs by HPLC analysis. In kind it is ADME, cell-free. The settings on record: horse, 6 s, time 6 sec.
Data set [3] has as its target T2, Acetylcholinesterase (Electrophorus electricus, UniProt O42275). Put plainly: Inhibition of electric eel AChE using acetylthiocholine chloride as substrate by Ellman's method.
Data set [4] can be described thus: Acute toxicity in zebra fish assessed as effect on liver median fluorescence intensity at 0.3125 to 1.25 ug/ml and measured at 120 hpf by microscopic analysis. Details: species or system Danio rerio. To be noted: zebrafish; dose 0.3125-1.25 µg/ml.
Data set [5] addresses T2, Acetylcholinesterase. Put plainly: Drug metabolism assessed as electric eel AChE-mediated 3-(4-fluorophenyl)-1-(2-hydroxyphenyl)prop-2-en-1-one formation treated at 150 mmol/L with 0.25U AChE and measured after 6 secs by HPLC analysis. To be noted: 6 s, time 6 sec. In kind it is ADME.
The species named for data set [6] is Danio rerio. Put plainly: Antialzheimer activity against AlCl3-induced Alzheimer's disease zebra fish model assessed as total distance moved at 0.0195 ug/ml treated for 24 hrs and measured after 24 hrs under dark environment (reference value: 312 cm). The settings on record: dose 0.0195 µg/ml; time 48 hrs. In kind it is functional.
The nature of data set [7]: Stability of the compound in artificial intestinal juice assessed as parent compound remaining at 1 mg/ml measured after 8 hrs by UPLC-MS/MS analysis. The settings on record: read-out: Stability. In kind it is ADME.
The nature of data set [8]: Metal chelating activity assessed as compound-Al3+ complex formation by measuring maximum absorption wavelength shift from 316 to 434 nm at 37.5 uM incubated for 30 mins in presence of AlCl3 by UV-Vis spectrometry.
Data set [9] concerns the target T3, Amine oxidase [flavin-containing] B (Homo sapiens, UniProt P27338).
T3 sequence (P27338 whole entry): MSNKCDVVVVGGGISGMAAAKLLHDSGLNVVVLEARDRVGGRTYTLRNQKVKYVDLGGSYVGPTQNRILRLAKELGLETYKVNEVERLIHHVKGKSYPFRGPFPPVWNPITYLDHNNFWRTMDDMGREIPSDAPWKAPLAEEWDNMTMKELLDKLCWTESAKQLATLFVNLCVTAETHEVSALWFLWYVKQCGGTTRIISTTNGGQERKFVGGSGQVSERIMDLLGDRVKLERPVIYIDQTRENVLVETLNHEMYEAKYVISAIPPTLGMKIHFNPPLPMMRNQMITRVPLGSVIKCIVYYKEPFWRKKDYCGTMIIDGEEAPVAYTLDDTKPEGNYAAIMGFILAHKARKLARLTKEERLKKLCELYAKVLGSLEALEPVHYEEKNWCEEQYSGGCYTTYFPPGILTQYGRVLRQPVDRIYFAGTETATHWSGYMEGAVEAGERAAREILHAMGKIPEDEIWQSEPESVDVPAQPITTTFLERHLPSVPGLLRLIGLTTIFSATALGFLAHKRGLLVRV
Put plainly: Inhibition of human recombinant MAO-B expressed in baculovirus-infected BTI cells using kynuramine as substrate incubated for 30 mins by fluorescence based analysis.

Data set [10] concerns PC-12. Put plainly: Cytotoxicity against rat PC-12 cells assessed as cell viability at 40 uM by CCK-8 assay. In kind it is toxicity, cell-based. To be noted: pc-12, 40 µM.
The species named for data set [11] is Danio rerio. Put plainly: Antialzheimer activity against AlCl3-induced Alzheimer's disease zebra fish model assessed as distance velocity at 0.0049 ug/ml treated for 24 hrs and measured after 24 hrs under light environment (reference value: 7.7 cm/min). Format: functional. The settings on record: dose 0.0049 µg/ml; time 48 hrs.

Broadly, the IC50 is the concentration at which inhibition is half-maximal.

T2 sequence (O42275 whole entry): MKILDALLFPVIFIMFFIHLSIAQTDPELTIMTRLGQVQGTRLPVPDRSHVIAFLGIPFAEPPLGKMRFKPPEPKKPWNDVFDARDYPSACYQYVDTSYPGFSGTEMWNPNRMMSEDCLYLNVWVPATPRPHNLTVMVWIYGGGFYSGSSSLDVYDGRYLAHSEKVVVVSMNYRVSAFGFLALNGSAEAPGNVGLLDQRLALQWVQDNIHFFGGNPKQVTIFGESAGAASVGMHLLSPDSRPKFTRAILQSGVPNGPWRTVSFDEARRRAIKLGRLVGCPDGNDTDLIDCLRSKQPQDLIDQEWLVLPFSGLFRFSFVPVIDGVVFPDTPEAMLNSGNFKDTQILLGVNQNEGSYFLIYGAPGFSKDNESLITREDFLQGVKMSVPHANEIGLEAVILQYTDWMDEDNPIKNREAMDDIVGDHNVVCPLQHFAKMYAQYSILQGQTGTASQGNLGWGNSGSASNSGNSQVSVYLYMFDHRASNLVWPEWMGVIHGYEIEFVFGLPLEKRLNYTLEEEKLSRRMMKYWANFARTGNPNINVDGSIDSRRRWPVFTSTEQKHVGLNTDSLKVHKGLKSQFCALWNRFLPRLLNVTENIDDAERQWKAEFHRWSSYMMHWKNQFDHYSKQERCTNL
T1 sequence (P81908 whole entry): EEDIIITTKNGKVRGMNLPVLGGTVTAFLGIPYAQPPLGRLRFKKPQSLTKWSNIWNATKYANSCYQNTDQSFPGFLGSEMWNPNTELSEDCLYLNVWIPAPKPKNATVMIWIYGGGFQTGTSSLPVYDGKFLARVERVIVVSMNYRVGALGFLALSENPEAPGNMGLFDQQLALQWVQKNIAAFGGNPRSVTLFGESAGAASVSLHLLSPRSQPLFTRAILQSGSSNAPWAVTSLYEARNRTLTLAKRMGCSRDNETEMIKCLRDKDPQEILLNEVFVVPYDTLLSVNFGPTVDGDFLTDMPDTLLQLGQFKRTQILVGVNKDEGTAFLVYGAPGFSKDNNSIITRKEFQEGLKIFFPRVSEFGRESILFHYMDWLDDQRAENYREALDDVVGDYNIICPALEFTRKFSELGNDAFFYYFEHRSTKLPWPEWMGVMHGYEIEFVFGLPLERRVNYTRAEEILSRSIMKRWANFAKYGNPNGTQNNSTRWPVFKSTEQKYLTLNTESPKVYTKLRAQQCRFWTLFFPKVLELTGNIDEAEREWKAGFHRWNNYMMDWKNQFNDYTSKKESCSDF

Consider `CCN(C)C(=O)Oc1ccccc1C(=O)/C=C/c1ccc(F)cc1`, for which the Drug metabolism in [1] is 14.17 mmol/L; in data set [2] it was 1.51 mmol/L; in data set [5] it was 1.46 mmol/L. Further, the IC50 is 5.3 µM in [3] and 1.9 µM in data set [9]. In addition, the Activity entry in data set [4] is recorded as “Non-Toxic”; in data set [6], 577 cm; in [10], “Non-Toxic”; in [11] it was 12.4 cm/min. Further, the remaining at 8 h, 1 mg/ml in [7] worked out at 104%. For the same molecule, the result in [8] was inactive.
